Measurements as given in patent US20220144848A1, “SUBSTITUTED OXOPYRIDINE DERIVATIVES” (Bayer Aktiengesellschaft, priority 2018, published 2022).

Key:
human plasma kallikrein = molecular target: T1, human plasma kallikrein (Homo sapiens, UniProt P03952); test: Determination of the plasma kallikrein activity (fluorogenic peptide substrate H-Pro-Phe-Arg-AMC); assay type: biochemical; details: plasma kallikrein from Kordia, 15 min preincubation, 30 min at 22° C., fluorescence; some as mean values from multiple determinations
T1 construct: purchased Kordia
T1 sequence (P03952 391-638 limits assumed): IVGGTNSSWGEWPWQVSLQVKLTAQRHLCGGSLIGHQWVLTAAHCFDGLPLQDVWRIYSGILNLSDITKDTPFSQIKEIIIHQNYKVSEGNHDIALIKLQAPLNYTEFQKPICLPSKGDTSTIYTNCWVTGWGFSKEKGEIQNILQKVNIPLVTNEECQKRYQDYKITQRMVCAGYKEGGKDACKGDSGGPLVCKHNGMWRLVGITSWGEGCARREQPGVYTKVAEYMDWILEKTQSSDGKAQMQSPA
T1 sequence (P03952 20-390 partner limits assumed): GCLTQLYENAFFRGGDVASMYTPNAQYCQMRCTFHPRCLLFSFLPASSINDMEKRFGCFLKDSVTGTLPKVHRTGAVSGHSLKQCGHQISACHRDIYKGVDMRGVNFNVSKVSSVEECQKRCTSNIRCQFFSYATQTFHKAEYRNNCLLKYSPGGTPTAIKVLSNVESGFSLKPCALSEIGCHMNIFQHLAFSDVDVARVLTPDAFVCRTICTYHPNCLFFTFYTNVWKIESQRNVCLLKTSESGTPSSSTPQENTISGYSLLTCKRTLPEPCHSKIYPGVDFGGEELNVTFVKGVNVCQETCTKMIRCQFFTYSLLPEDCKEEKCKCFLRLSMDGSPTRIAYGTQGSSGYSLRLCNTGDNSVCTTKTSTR
Experimental: (§1) To determine the plasma kallikrein inhibition of the substances according to the invention, a biochemical test system is used which utilizes the reaction of a peptidic plasma kallikrein substrate to determine the enzymatic activity of human plasma kallikrein. Here, plasma kallikrein cleaves from the peptidic plasma kallikrein substrate the C-terminal aminomethylcoumarin (AMC), the fluorescence of which is measured. The determinations are carried out in microtitre plates.
Test substances are dissolved in dimethyl sulfoxide and serially diluted in dimethyl sulfoxide (3000 μM to 0.0078 μM; resulting final concentrations in the test: 50 μM to 0.00013 μM). In each case 1 μl of the diluted substance solutions is placed into the wells of white microtitre plates from Greiner (384 wells). 20 μl of assay buffer (50 mM Tris/HCl pH 7.4; 100 mM sodium chloride solution; 5 mM of calcium chloride solution; 0.1% of bovine serum albumin) and 20 μl of plasma kallikrein from Kordia (0.6 nM in assay buffer) are then added successively. After 15 min of incubation, the enzyme reaction is started by addition of 20 μl of the substrate H-Pro-Phe-Arg-AMC dissolved in assay buffer (10 μM in assay buffer) from Bachem, the mixture is incubated at room temperature (22° C.) for 30 min and fluorescence is then measured (excitation: 360 nm, emission: 460 nm). The measured emissions of the test batches with test substance are compared to those of control batches without test substance (only dimethyl sulfoxide instead of test substance in dimethyl sulfoxide), and IC50 values are calculated from the concentration/activity relationships. Activity data from this test are listed in Table B below (some as mean values from multiple independent individual determinations): […]

human factor XIa = molecular target: T2, human factor XIa (Homo sapiens, UniProt P03951); test: Measurement of FXIa inhibition (fluorogenic peptide substrate Boc-Glu(OBzl)-Ala-Arg-AMC); assay type: biochemical; details: factor XIa from Kordia, 15 min preincubation, 30 min at 22° C., fluorescence; some as mean values from multiple determinations
T2 construct: purchased Kordia
T2 sequence (P03951 388-625 limits assumed): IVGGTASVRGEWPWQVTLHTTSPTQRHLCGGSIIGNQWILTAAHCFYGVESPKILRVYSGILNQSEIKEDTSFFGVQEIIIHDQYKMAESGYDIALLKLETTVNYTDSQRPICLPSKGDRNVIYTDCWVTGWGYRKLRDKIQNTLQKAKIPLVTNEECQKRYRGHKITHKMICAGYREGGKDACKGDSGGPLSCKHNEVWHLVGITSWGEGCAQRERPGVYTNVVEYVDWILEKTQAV
T2 sequence (P03951 19-387 partner limits assumed): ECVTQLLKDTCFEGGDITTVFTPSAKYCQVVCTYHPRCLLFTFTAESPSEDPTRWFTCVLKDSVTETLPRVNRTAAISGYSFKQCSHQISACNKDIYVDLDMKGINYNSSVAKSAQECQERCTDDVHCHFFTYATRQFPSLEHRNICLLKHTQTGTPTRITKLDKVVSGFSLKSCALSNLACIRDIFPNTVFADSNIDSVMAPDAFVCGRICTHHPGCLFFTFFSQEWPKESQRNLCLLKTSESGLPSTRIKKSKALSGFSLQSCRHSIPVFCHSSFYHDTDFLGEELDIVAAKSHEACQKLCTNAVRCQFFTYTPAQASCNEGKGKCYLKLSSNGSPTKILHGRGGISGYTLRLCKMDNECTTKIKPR
Experimental: as §1, with “The factor XIa” for “To determine the plasma kallikrein”, “invention is determined using” for “invention,”, “system” for “system is used”, “factor XIa” for “plasma kallikrein”, “factor XIa.” for “plasma kallikrein.”
Test substances are dissolved in dimethyl sulfoxide and serially diluted in dimethyl sulfoxide (3000 μM to 0.0078 μM; resulting final concentrations in the test: 50 μM to 0.00013 μM). In each case 1 μl of the diluted substance solutions is placed into the wells of white microtitre plates from Greiner (384 wells). 20 μl of assay buffer (50 mM of Tris/HCl pH 7.4; 100 mM of sodium chloride; 5 mM of calcium chloride; 0.1% of bovine serum albumin) and 20 μl of factor XIa from Kordia (0.45 nM in assay buffer) are then added successively. After 15 min of incubation, the enzyme reaction is started by addition of 20 μl of the factor XIa substrate Boc-Glu(OBzl)-Ala-Arg-AMC dissolved in assay buffer (10 μM in assay buffer) from Bachem, the mixture is incubated at room temperature (22° C.) for 30 min and fluorescence is then measured (excitation: 360 nm, emission: 460 nm). The measured emissions of the test batches with test substance are compared to those of control batches without test substance (only dimethyl sulfoxide instead of test substance in dimethyl sulfoxide), and IC50 values are calculated from the concentration/activity relationships.

Row | IC50 (human plasma kallikrein) [nM] | IC50 (human factor XIa) [nM] | Structure (SMILES)
1 | 110 | 5.4 | C[C@@H]1Cc2ccc(Cl)cc2-c2cc(=O)n([C@@H](CCOC(C)(C)C)C(=O)Nc3ccc(C(N)=O)cc3)cc2CO1 (single isomer, unassigned) [Example 24]
2 | 170 | 28 | C[C@@H]1Cc2ccc(Cl)cc2-c2cc(=O)n([C@@H](CCOC(C)(C)C)C(=O)Nc3ccn4ncnc4c3)cc2CO1 (single isomer, unassigned) [Example 26]
3 | 71 | 6.6 | C[C@@H]1Cc2ccc(Cl)cc2-c2cc(=O)n([C@@H](CCOC3CC3)C(=O)Nc3ccc(C(N)=O)cc3)cc2CO1 (single isomer, unassigned) [Example 27]
4 | 190 | 12 | CC[C@@H](C(=O)Nc1ccc(C(N)=O)cc1)n1cc2c(cc1=O)-c1c(ccc(Cl)c1F)C[C@@H](C)OC2 (single isomer, unassigned) [Example 28]
5 | 47 | 1.6 | CO[C@@H](C)C[C@@H](C(=O)Nc1ccc(C(N)=O)cc1)n1cc2c(cc1=O)-c1c(ccc(Cl)c1F)C[C@@H](C)OC2 (single isomer, unassigned) [Example 29]
6 | 980 | 13 | CC[C@@H]1Cc2ccc(Cl)cc2-c2cc(=O)n([C@@H](C[C@@H]3CCCCO3)C(=O)Nc3ccc(C(N)=O)c(F)c3)cc2CO1 (single isomer, unassigned) [Example 31]
7 | 480 | 9.1 | NC(=O)c1ccc(NC(=O)[C@H](C[C@@H]2CCCCO2)n2cc3c(cc2=O)-c2cc(Cl)ccc2C[C@@H](CO)OC3)cc1F (single isomer, unassigned) [Example 33]
8 | 170 | 2.1 | NC(=O)c1ccc(NC(=O)[C@H](C[C@@H]2CCCCO2)n2cc3c(cc2=O)-c2cc(Cl)ccc2C[C@@H](CO)OC3)cc1 (single isomer, unassigned) [Example 35]
9 | 320 | 6 | NC(=O)c1ccc(NC(=O)[C@H](C[C@@H]2COCCO2)n2cc3c(cc2=O)-c2cc(Cl)ccc2C[C@@H](CO)OC3)cc1 (single isomer, unassigned) [Example 37]
10 | 1600 | 10 | CC(C)[C@@H]1Cc2ccc(Cl)cc2-c2cc(=O)n([C@@H](C[C@@H]3COCCO3)C(=O)Nc3ccc(C(N)=O)c(F)c3)cc2CO1 (single isomer, unassigned) [Example 41]
11 | 380 | 1.7 | CC(C)[C@@H]1Cc2ccc(Cl)cc2-c2cc(=O)n([C@@H](C[C@@H]3COCCO3)C(=O)Nc3ccc(C(N)=O)cc3)cc2CO1 (single isomer, unassigned) [Example 43]
12 | 660 | 17 | CC(C)[C@@H]1Cc2ccc(Cl)cc2-c2cc(=O)n([C@@H](C[C@@H]3COCCO3)C(=O)Nc3ccc4nn(C)nc4c3)cc2CO1 (single isomer, unassigned) [Example 45]
13 | 1500 | 56 | CC[C@@H](C(=O)Nc1ccc(C(N)=O)c(F)c1)n1cc2c(cc1=O)-c1cc(Cl)ccc1C[C@@H](C(F)F)OC2 (single isomer, unassigned) [Example 47]
14 | 370 | 4.7 | NC(=O)c1ccc(NC(=O)[C@H](C[C@@H]2CCCCO2)n2cc3c(cc2=O)-c2cc(Cl)ccc2C[C@@H](C(F)F)OC3)cc1F (single isomer, unassigned) [Example 49]
15 | 360 | 4.2 | NC(=O)c1ccc(NC(=O)[C@H](C[C@@H]2CCCCO2)n2cc3c(cc2=O)-c2cc(Cl)ccc2C[C@@H](C(F)(F)F)OC3)cc1F (single isomer, unassigned) [Example 51]
16 | 300 | 2.3 | NC(=O)c1ccc(NC(=O)[C@H](C[C@@H]2CCCCO2)n2cc3c(cc2=O)-c2cc(Cl)ccc2C[C@@H](C(F)(F)F)OC3)cn1 (single isomer, unassigned) [Example 53]
17 | 91 | 0.5 | NC(=O)c1ccc(NC(=O)[C@H](C[C@@H]2CCCCO2)n2cc3c(cc2=O)-c2cc(Cl)ccc2C[C@@H](C(F)(F)F)OC3)cc1 (single isomer, unassigned) [Example 55]

Row | IC50 (human plasma kallikrein) [nM] | IC50 (human factor XIa) [nM] | Structure (SMILES)
18 | 310 | 3.8 | NC(=O)c1ccc(NC(=O)[C@H](C[C@@H]2COCCO2)n2cc3c(cc2=O)-c2cc(Cl)ccc2C[C@@H](C(F)(F)F)OC3)cc1F (single isomer, unassigned) [Example 57]
19 | 89 | 0.9 | NC(=O)c1ccc(NC(=O)[C@H](C[C@@H]2COCCO2)n2cc3c(cc2=O)-c2cc(Cl)ccc2C[C@@H](C(F)(F)F)OC3)cc1 (single isomer, unassigned) [Example 59]
20 | 340 | 10 | COCC[C@@H](C(=O)Nc1ccc(C(N)=O)c(F)c1)n1cc2c(cc1=O)-c1cc(Cl)ccc1C[C@@H](C(F)(F)F)OC2 (single isomer, unassigned) [Example 61]
21 | 110 | 2.5 | COCC[C@@H](C(=O)Nc1ccc(C(N)=O)cc1)n1cc2c(cc1=O)-c1cc(Cl)ccc1C[C@@H](C(F)(F)F)OC2 (single isomer, unassigned) [Example 63]
22 | 120 | 6.8 | COCC[C@@H](C(=O)Nc1ccn2ncnc2c1)n1cc2c(cc1=O)-c1cc(Cl)ccc1C[C@@H](C(F)(F)F)OC2 (single isomer, unassigned) [Example 65]
23 | 220 | 3.5 | CO[C@@H](C)C[C@@H](C(=O)Nc1ccc(C(N)=O)cc1)n1cc2c(cc1=O)-c1cc(Cl)ccc1C[C@@H](C(F)(F)F)OC2 (single isomer, unassigned) [Example 67]
24 | 170 | 6.9 | CC[C@@H](C(=O)Nc1ccc(C(N)=O)cc1)n1cc2c(cc1=O)-c1c(ccc(Cl)c1F)C[C@@H](C(F)(F)F)OC2 (single isomer, unassigned) [Example 68]
25 | 55 | 1.1 | NC(=O)c1ccc(NC(=O)[C@H](C[C@@H]2CCCCO2)n2cc3c(cc2=O)-c2c(ccc(Cl)c2F)C[C@@H](C(F)(F)F)OC3)cc1 (single isomer, unassigned) [Example 69]
26 | 580 | 64 | CC[C@@H](C(=O)Nc1ccc(C(N)=O)cc1)n1cc2c(cc1=O)-c1c(ccc(Cl)c1Cl)C[C@@H](C(F)(F)F)OC2 (single isomer, unassigned) [Example 70]
27 | 225 | 3.5 | CC[C@@H](C(=O)Nc1ccc(C(N)=O)c(F)c1)n1cc2c(cc1=O)-c1cc(Cl)ccc1C[C@@H](C)O[C@H]2C (single isomer, unassigned) [Example 71]
28 | 65 | 2.5 | C[C@@H]1Cc2ccc(Cl)cc2-c2cc(=O)n([C@@H](C[C@@H]3CCCCO3)C(=O)Nc3ccc(C(N)=O)c(F)c3)cc2[C@H](C)O1 (single isomer, unassigned) [Example 72]
29 | 27 | 0.8 | C[C@@H]1Cc2ccc(Cl)cc2-c2cc(=O)n([C@@H](C[C@@H]3CCCCO3)C(=O)Nc3ccc(C(N)=O)cc3)cc2[C@H](C)O1 (single isomer, unassigned) [Example 73]
30 | 30 | 1.4 | CO[C@@H](C)C[C@@H](C(=O)Nc1ccc(C(N)=O)cc1)n1cc2c(cc1=O)-c1cc(Cl)ccc1C[C@@H](C)O[C@H]2C (single isomer, unassigned) [Example 74]
31 | 40 | 5.9 | CC[C@@H](C(=O)Nc1ccc(C(N)=O)cc1)n1cc2c(cc1=O)-c1c(ccc(Cl)c1F)C[C@@H](C)O[C@H]2C (single isomer, unassigned) [Example 75]
32 | 190 | 9.8 | C[C@@H]1Cc2ccc(Cl)cc2-c2cc(=O)n([C@@H](C)C(=O)Nc3ccc(C(N)=O)cc3)cc2CO1 (single isomer, unassigned) [Example 76]
33 | 220 | 9.6 | C[C@@H](C(=O)Nc1ccc(C(N)=O)cc1)n1cc2c(cc1=O)-c1c(ccc(Cl)c1F)C[C@@H](C(F)(F)F)OC2 (single isomer, unassigned) [Example 77]
